By melting point is commonly meant the temperature of the solid-liquid transition. What is called IC50 is the concentration that inhibits the measured activity by half.

The subject of one data set is adjuvant arthritis. Kind of data set: Anti-adjuvant-arthritic activity. The following applies: 10 mg/kg orally once a day for 14 days; volume of left hind limb (not injected); day of reading not given. It counts as in vivo, SD rats. The method, then: Anti-Adjuvant-Arthritic Activity
Male SD origin male-rats (6 weeks old, CLEA Japan, 1 group: n=7) were used. The adjuvant arthritis method was conducted according to the method of Newbould B. B. et. al., (Brit. J. Pharmacol. Chemother., vol. 21, p. 127, 1963). Complete Freund's adjuvant (a suspension of killed tubercule bacillus in liquid paraffin at a concentration of 0.5%, 0.05 mL) was injected into the right hind limb footpad intracutaneouly to induce multiple arthritis. Samples were administered orally (10 mg/kg, b.w.), once a day for 14 days from the day before the injection day 0 to day 13. Volume of the left hind limb (not injected) was determined by the foot-volume measurement apparatus manufactured by Ugo Basile, on the day just before the adjuvant shot (Day 0), Day 10 and Day 14, and repression rate (%) was calculated comparing the values between the sample group and the control group.

The test system of data set [1] is mucosa of small intestine. Kind of data set: Disorder of mucosa of small intestine. It counts as in vivo, SD rats. The note with it: 100 mg/kg orally, freely fed rats, 6 hours after dosing. On the procedure:
Disorder of Mucosa of Small Intestine Male SD origin male-rats (7 weeks old, CLEA Japan) were used. To the rats freely fed, samples were administered orally (5 mL/kg, b.w.). After 5.5 hours from the administration, Evan's Blue (0.5% Evan's Blue/saline) was injected (1 mL/rat) intravenously under no anesthesia. After 30 minutes from the shot, the intestine was removed by celiotomy and the area thereof facing mesentery was cut open. After removal of intestinal content, the spots in the intestine dyed by Evan's Blue were measured under a stereomicroscope, and the total length (mm) of the spots was determined by a counter and recorded.

Another data set relates to yeast-induced pyrexia. Kind of data set: Antipyretic activity in yeast-induced pyrexia. It counts as in vivo, SD rats. The following applies: 10 mg/kg orally; maximum difference in body temperature vs control over 6 hours. The method, then:
Antipyretic Activity in Yeast-Induced Pyrexia Antipyretic activity was determined using male SD origin male-rats (7 weeks old, CLEA Japan, 1 group: n=6), according to the method of winter et. al. (J. Pharmacol. Exp. Ther., vol. 138, p. 405, 1963). Before 16 hours from measurement of body temperature, a suspension of 15% yeast in saline was injected subcutaneously (10 mL/kg, b.w.) into the rats to induce fever, and simultaneously supply of food was terminated while water was made available all the time. Each of the rats was raised separately. After 16 hours from the yeast shot, a thermistor terminal was inserted at an about 4 cm depth into rectum every hour, and the body temperatures after 30 seconds were recorded. After 18 hours, rats developing fevers consistently were selected, and a sample was orally administered to the rats (5 mL/kg, b.w.), while to the control, only the solvent was administered. After the administration, body temperatures were measured every hour for a period of 6 hours, and the maximum difference in body temperature between the rats in the sample group and in the control group were determined as Δ (° C.).

In the next data set the target is T1, human COX-1 (Homo sapiens, UniProt P23219).
T1 construct: made in house; host or cells: Sf-21 insect cells (recombinant baculovirus BAC-COX1, pFASTBAC1); microsome fraction
T1 sequence (P23219 24-599): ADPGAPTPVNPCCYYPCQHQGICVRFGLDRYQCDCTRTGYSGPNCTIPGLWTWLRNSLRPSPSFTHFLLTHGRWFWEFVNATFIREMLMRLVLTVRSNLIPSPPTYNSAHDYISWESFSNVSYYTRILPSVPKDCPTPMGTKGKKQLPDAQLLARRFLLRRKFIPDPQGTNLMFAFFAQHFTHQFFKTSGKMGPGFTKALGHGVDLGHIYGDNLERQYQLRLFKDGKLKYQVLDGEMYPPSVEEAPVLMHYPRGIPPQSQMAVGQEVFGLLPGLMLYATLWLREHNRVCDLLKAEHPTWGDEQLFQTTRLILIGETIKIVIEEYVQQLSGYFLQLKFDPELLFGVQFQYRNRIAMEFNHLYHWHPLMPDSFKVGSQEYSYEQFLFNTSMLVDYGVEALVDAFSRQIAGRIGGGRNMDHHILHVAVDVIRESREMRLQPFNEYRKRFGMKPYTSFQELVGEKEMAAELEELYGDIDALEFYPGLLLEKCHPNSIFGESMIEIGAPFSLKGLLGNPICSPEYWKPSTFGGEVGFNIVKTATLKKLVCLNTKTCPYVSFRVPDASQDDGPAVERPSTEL
Kind of data set: Determination of COX-1 inhibitory activity (microsome fraction, chemiluminescence). In kind it is biochemical. The following applies: microsome fraction 40 μg, arachidonic acid, 37° C. 25 minutes preincubation; read-out: Repression rate IC50 (μM) COX-1. The method, then: A 1.8 kb DNA fragment containing human COX-1 cDNA (FASEB J., vol. 5 (9), p. 2304-2312 (1991)) prepared by the PCR method was inserted into plasmid pFASTBAC1 (CIBCOBRL) to obtain a plasmid pFBCOX1.
Using the plasmid pFBCOX1 and BAC-TO-BAC Baculovirus Expression System (GIBCOBRL), a virus stock BAC-COX1 of the recombinant baculovirus was prepared.
Sf-21 cells were inoculated in 125 mL of Sf-900 II SFM medium (GIBCOBRL) at a concentration of 1×10^6 cells/mL, and the medium was incubated at 27° C. for 24 hours. 0.75 mL of the virus stock BAC-COX1 of the recombinant baculovirus was added thereto, and the mixture was incubated further for 72 hours. The cells were separated from the medium by centrifugation (3000 rpm, 10 min), and washed with PBS twice. The cells were suspended in 10 mL of a Lysis buffer (0.1M Tris-HCl (pH 7.4), 5 mM EDTA), and were treated with a homogenizer (POLYTRON) three times at 20000 rpm for 20 seconds so that the cells were crushed. The supernatant obtained after centrifugation (2000 rpm, 10 minutes) was further centrifuged (40000 rpm, 45 minutes) to give a precipitate, which was resuspended in a Lysis buffer (0.1M Tris-HCl (pH 7.4), 5 mM EDTA), and the suspension was stored at −80° C.
(§1) Determination of COX-1 and COX-2 Inhibitory Activities
(§2) To a mixture of 20 μL of a reaction buffer previously concentrated 10 times (1M Tris-HCl (pH8.0), 50 mM EDTA, 1.0% Tween 20, 50 mM luminol, 100 μM hematin), 20 μL of the microsome fractions (COX-1: 40 μg, COX-2: 20 μg), and 55 μL of distilled water, a sample compound dissolved in DMF (5 μL) was added, and the mixture was left at 37° C. for 25 minutes. The reaction was started by the addition of 20 μM arachidonic acid (100 μL), and chemiluminescence amount during the 10-second period after the addition of arachidonic acid was determined by the use of Lumistar (BMG Lab technologies, GmbH). The inhibition rate was calculated, regarding that the enzyme activity when DMF ([…]) was added was 100%, and the enzyme activity when 4 mM flurbiprofen (5 μL) was added was 0%.

A further data set concerns the target T2, human COX-2 (Homo sapiens, UniProt P35354).
T2 construct: made in house; host or cells: Sf-21 insect cells (recombinant baculovirus BAC-COX2, pFASTBAC1); microsome fraction
T2 sequence (P35354 18-604): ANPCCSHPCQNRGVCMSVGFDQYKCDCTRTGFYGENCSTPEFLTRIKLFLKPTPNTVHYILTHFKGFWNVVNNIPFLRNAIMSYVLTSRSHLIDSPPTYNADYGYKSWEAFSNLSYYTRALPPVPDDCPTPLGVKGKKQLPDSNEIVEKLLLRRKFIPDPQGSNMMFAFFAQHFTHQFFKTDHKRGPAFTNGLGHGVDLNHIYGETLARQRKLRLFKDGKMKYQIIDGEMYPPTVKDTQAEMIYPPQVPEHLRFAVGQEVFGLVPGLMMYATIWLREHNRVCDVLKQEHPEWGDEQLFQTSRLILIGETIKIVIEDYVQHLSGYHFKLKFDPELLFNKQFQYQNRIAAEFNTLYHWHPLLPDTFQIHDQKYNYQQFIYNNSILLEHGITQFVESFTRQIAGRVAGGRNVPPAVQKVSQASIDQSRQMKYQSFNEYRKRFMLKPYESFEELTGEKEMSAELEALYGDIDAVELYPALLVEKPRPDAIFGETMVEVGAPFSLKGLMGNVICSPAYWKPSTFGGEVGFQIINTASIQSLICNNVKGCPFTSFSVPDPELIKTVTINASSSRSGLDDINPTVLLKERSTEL
Kind of data set: Determination of COX-2 inhibitory activity (microsome fraction, chemiluminescence). It counts as biochemical. The note with it: microsome fraction 20 μg, arachidonic acid, 37° C. 25 minutes preincubation; read-out: Repression rate IC50 (μM) COX-2. On the procedure:
A 1.8 kb DNA fragment containing human COX-2 cDNA (Proc. Natl. Acad. Sci. U.S.A., vol. 89 (16), p. 7384-7388 (1992)) prepared by the PCR method was inserted into plasmid pFASTBAC1 (CIBCOBRAL) to obtain a plasmid pFBCOX2.
Using the plasmid pFBCOX2 and BAC-TO-BAC Baculovirus Expression System (GIBCOBRAL), a virus stock BAC-COX2 of the recombinant baculovirus was prepared.
Sf-21 cells were inoculated in 125 mL of LSf-900 II SFM medium (GIBCOBRAL) at a concentration of 1×10^6 cells/mL, and the medium was incubated at 27° C. for 24 hours. 0.75 mL of the virus stock BAC-COX2 of the recombinant baculovirus was added thereto, and was incubated further for 72 hours. The cells were separated from the medium by centrifugation (3000 rpm, 10 min), and washed with PBS twice. The cells were suspended in 10 mL of a Lysis buffer (0.1M Tris-HCl (pH 7.4), 5 mM EDTA), and were treated with a homogenizer (POLYTRON), three times at 20000 rpm for 20 seconds so that the cells were crushed. The supernatant thus obtained after centrifugation (2000 rpm, 10 minutes) was further centrifuged (40000 rpm, 45 minutes) to obtain a precipitate, which was resuspended in a Lysis buffer (0.1M Tris-HCl (pH 7.4), 5 mM EDTA), and the suspension was stored at −80° C.
as §1, §2

Data set [2] has as its system carrageenin edema of right hind limb plantar. Kind of data set: Anti-inflammatory activity, carrageenin edema method. In kind it is in vivo, SD-rats. The note with it: po, 10 mg/kg orally. The method, then: Anti-Inflammatory Activity
Male SD-rats (6 weeks old, CLEA Japan) were used (1 group, n=6). The Carrageenin edema method was performed according to the method of Winter et. al., (Proc. Soc. Exp. Biol. Med., vol. 111, p. 544-547, 1962). After the volume of right hind limb plantar of the rat was determined, a sample was orally administered (1.0 mL, b.w.), and immediately water was orally administered in an amount of 5 mL/rat. Meanwhile, only the solvent of the sample was orally administered to rats in control. After 1 hour, a solution of 1% carrageenin in saline (0.05 mL) was injected into the right hind limb plantar subcutaneously to induce edema. After 2 and 3 hours later from the injection, volumes of the right hind limb plantar were determined. The repression rate (%) of the sample was calculated by comparing the difference of the volumes of the plantar before the carrageenin shot and 2 and 3 hours after the shot between the sample groups and the control groups.
A general note: Carrageenan injected into the paw causes an acute inflammation.

The subject of data set [3] is acetic acid induced rising and stretching. Kind of data set: Analgesic activity, acetic acid rising method. In kind it is in vivo, ICR-mice. The following applies: po, 20 min; 10 mg/kg orally, 30 minutes before 0.6% acetic acid i.p.; number of rising and stretching in 20 minutes; read-out: Repression rate (%) Dosage 10 mg/kg. On the procedure: Analgesic Activity Acetic Acid Rising Method Male ICR-mice (5 weeks old, CLEA Japan) were used (1 group, n=10), and a sample was orally administered (0.2 mL/10 g, b.w.). After 30 minutes, 0.6% acetic acid solution was injected to mice intraperitoneally (0.1 mL/10 g, b.w.), and the mice were immediately transferred into an observation cage made of a transparent acrylic resin. The number of rising and stretching during the following period of 20 minutes was counted. The repression rate (%) was calculated by comparing the average numbers between the sample groups and the control groups.

Like-named read-outs stand apart in the source and are kept apart here. Marks after values point to notes of the source that are not given here.

`Cc1nn(-c2ccccn2)c2[nH]c3cc(F)ccc3c(=O)c12` [Example 2-83, 7-Fluoro-3-methyl-1-(2-pyridinyl)-1,9-dihydro-4H-pyrazolo[3,4-b]quinolin-4-one] yielded a melting point of 260 to 261 °C. In the data set on adjuvant arthritis, the “Repression rate (%) Dosage 10 mg/kg” value is recorded as 65* %.
With `Cc1nn(-c2ccccn2)c2[nH]c3ccc(C(F)(F)F)cc3c(=O)c12` [Example 2-40, 3-Methyl-1-(2-pyridinyl)-6-(trifluoromethyl)-l,9-dihydro-4H-pyrazolo[3,4-b]quinolin-4-one], the “Total length of dyed spots (mm)” value in data set [1] is listed as 0 (100 mg/kg) mm.
Same read-out and setting: the value for `Cc1nn(-c2ccccn2)c2[nH]c3ccccc3c(=O)c12` [Example 2-12, 3-Methyl-1-(2-pyridinyl)-1,9-dihydro-4H-pyrazolo[3,4-b]quinolin-4-one] was 0 (100 mg/kg) mm.
For the compound `Cc1nn(-c2ccccn2)c2nc3ccccc3c(OC(C)C)c12` [Example 2-18, 4-Isopropoxy-3-methyl-1-(2-pyridinyl)-1H-pyrazolo[3,4-b]quinoline], the melting point was in the range of 93 to 96 °C. Moreover, the “Δ (° C.) Dosage 10 mg/kg” value in the data set on yeast-induced pyrexia is 1.7** ° C. Besides, the “Repression rate (%) Dosage 10 mg/kg” value with adjuvant arthritis is given as 47%.
With `COC(=O)c1cccc2[nH]c3c(c(C)nn3-c3ccccn3)c(=O)c12` [Example 2-61, Methyl 3-methyl-4-oxo-1-(2-pyridinyl)-4,9-dihydro-1H-pyrazolo[3,4-b]quinoline-5-carboxylate], the melting point fell in the range of 241 to 244 °C. The concentration for half-maximal inhibition (IC50) on human COX-1 was found to be 2 µM. At human COX-2, the half-inhibitory concentration (IC50) is 44 µM. Further, in data set [2] (2 hr after carrageenin injection, read-out: Repression rate (%) Dosage 10 mg/kg 2 hr later), the inhibition in vivo at 10 mg/kg was 36%. Moreover, in data set [2] (3 hr after carrageenin injection, read-out: Repression rate (%) Dosage 10 mg/kg 3 hr later), the inhibition in vivo at 10 mg/kg is 28%. Besides, the inhibition in vivo at 10 mg/kg in data set [3] is 75%.
`Cc1nn(-c2ccccn2)c2[nH]c3ccc(F)cc3c(=O)c12` [Example 2-81, 6-Fluoro-3-methyl-1-(2-pyridinyl)-1,9-dihydro-4H-pyrazolo[3,4-b]quinolin-4-one] registered a melting point of 278 to 280 °C. Also, the “Repression rate (%) Dosage 10 mg/kg” value in the data set with adjuvant arthritis was 56%.

Values taken from patent publication US6949648B2, “Condensed pyrazole derivatives, process for producing the same and use thereof” (Takeda Pharmaceutical Company Limited, priority 2000, dated 2005).
